In US20240252488A1 (KOREA RESEARCH INSTITUTE OF CHEMICAL TECHNOLOGY, priority 2020, published 2024):

Experiments:
FADD−/− Jurkat cells = test: Necroptosis inhibition assay, TNF-α-induced necroptosis (CellTiter-Glo 2.0); assay type: cell-based, human; settings: TNF-α 15 ng/mL; for Necroptosis inhibition assay (Rescue %) 1 μM: compound 1 μM; for Necroptosis inhibition assay (Rescue %) 10 μM: compound 10 μM
Outline: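 Cells at 5.0×10^5 cells/mL were pretreated with compound (final 0.1, 1 and 10 μM) for 30 minutes at room temperature, then given TNF-α at 15 ng/mL final. After 20 to 24 hours at 37° C, 5% CO2, viability was read as ATP luminescence to calculate cytotoxicity and necroptosis inhibition rate.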

MLKL [1] = molecular target: T1, MLKL (Homo sapiens, UniProt Q8NB16); test: MLKL degradation assay in HepG2 cell line (western blot); assay type: cell-based; design: endogenous in cells; host or cells: HepG2 or HaCaT; settings: cell line not given; for Degradation assay (Degradation %) 1 μM: compound 1 μM; for Degradation assay (Degradation %) 10 μM: compound 10 μM
T1 sequence (Q8NB16 1-471): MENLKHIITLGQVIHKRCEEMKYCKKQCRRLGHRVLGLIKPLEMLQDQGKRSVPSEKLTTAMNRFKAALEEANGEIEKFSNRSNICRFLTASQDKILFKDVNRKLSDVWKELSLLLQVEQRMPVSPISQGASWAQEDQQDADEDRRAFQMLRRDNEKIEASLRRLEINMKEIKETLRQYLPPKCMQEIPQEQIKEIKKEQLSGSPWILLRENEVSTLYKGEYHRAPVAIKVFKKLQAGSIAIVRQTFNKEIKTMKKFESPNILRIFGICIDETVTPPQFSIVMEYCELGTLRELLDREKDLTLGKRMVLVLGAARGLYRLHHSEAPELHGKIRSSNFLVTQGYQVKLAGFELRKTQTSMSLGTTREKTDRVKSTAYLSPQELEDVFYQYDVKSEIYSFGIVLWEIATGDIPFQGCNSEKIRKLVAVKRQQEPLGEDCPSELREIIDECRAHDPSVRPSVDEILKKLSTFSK
Protocol: MLKL degradation ability was evaluated in the following method.
1 mL of Human liver cancer cell line (HepG2 cell line) or human skin cell line (HaCaT cell line) was equally distributed into each well at 2.0×10^5 cells/mL in a 12-well cell culture plate. On the next day, the medium was replaced with a medium made so that the final concentration of test compound was 1 or 10 μM (1 mL/well), and incubated in 5% CO2, at 37° C. for 20-24 hours (Thermo scientific, Forma steri-cycle).
For protein preparation after incubation, cells were washed with 1×TBST, and 60 μL of RIPA lysis buffer containing Halt™ Protease and Phosphatase Inhibitor Cocktail was dispensed into each well. After scraping the cells with a scraper, the cells were recovered, and the pallet was homogenized and reacted on ice for 30 minutes. After the cells were centrifuged at 13,000 rpm, 10 minutes, 4° C., the supernatant was transferred to a new E-tube. For protein quantification, after dispensing sample and BCA (0-4 mg/ml) in a 96 well plate, 100 μL of BCA was dispensed and reacted in a 37° C. incubator for 30 minutes. After measuring the absorbance (SpectraMax, M5e, 562 nm), the amount of the sample was adjusted with the same concentration of protein and 4× Laemmli sample buffer, DW, and reacted at 100° C. for 5 minutes.
After assembling the MP TGX Precast Gel in the Mini-PROTEAN Tetra Cell, the same protein (10-15 μg) was added in an 8-10 μL volume per well, 1×Tris-Glycine Buffer was added, and loading was performed. After loading was completed, transfer was performed using Pierce G2 Fast Blotter and Pierce 1-Step Transfer Buffer. After completion of the transfer, 10 ml of SuperBlock™ Blocking Buffer was dispensed and reacted at room temperature for 10 minutes. 5% BSA containing the primary antibody was dispensed and reacted over night at 4° C. The next day, washing was performed three times with 1×TBST at room temperature for 10 minutes. 5% BSA containing the secondary antibody was dispensed and reacted at room temperature for 1 hour. Washing was performed three times with 1×TBST at room temperature for 10 minutes. The amount of protein expression was measured using chemiluminescence (LuminoGraph, ATTO).

MLKL [2] = molecular target: T1, MLKL; test: Measurement of binding affinity with MLKL receptor (competitive binding assay, Kd); design: made in house; host or cells: HEK 293 cell line (T7 phage in E. coli BL21-derived host is also described)
Outline: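 Competition binding of kinase tagged with DNA for qPCR detection, expressed in HEK 293 cells, against immobilized ligand on beads. Final DMSO 0.9%. Kd derived from kinase amount in eluates measured by qPCR.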

Degradation assay (Degradation %) 1 μM (MLKL [1]) [%]	Degradation assay (Degradation %) 10 μM (MLKL [1]) [%]	Kd (MLKL [2]) [µM]	Structure (SMILES)	Necroptosis inhibition assay (Rescue %) 1 μM (FADD−/− Jurkat cells) [%]	Necroptosis inhibition assay (Rescue %) 10 μM (FADD−/− Jurkat cells) [%]	Necroptosis inhibition assay (Rescue %) 1 μM (FADD−/− Jurkat cells; FADD−/− Jurkat cells) [%]	Necroptosis inhibition assay (Rescue %) 10 μM (FADD−/− Jurkat cells; FADD−/− Jurkat cells) [%]
60.02	68.41	0.004	Nc1ncc(-c2cnn(C3CCN(CCOCCNC(=O)CNc4cccc5c4C(=O)N(C4CCC(=O)NC4=O)C5=O)CC3)c2)nc1C(=O)O[C@@H](C(=O)Nc1ccc(F)cc1)c1ccccc1 (stereo partly drawn) [TDH-096, (R)-2-((4-fluorophenyl)amino)-2-oxo-1-phenylethyl 3-amino-6-(1-(1-(2-(2-(2-((2-(2,6-dioxopiperidin-3-yl)-1,3-dioxoisoindolin-4-yl)amino)acetamido)ethoxy)ethyl)piperidin-4-yl)-1H-pyrazol-4-yl)pyrazine-2-carboxylate]	32.98	30.53		
49.22	39.81	0.035	Nc1ncc(-c2cnn(C3CCN(CCCCCCCCCCNC(=O)C4CN(c5cccc6c5C(=O)N(C5CCC(=O)NC5=O)C6=O)C4)CC3)c2)nc1C(=O)O[C@@H](C(=O)Nc1ccc(F)cc1)c1ccccc1 (stereo partly drawn) [TDH-158, (R)-2-((4-fluorophenyl)amino)-2-oxo-1-phenylethyl 3-amino-6-(1-(1-(10-(1-(2-(2,6-dioxopiperidin-3-yl)-1,3-dioxoisoindolin-4-yl)azetidine-3-carboxamido)decyl)piperidin-4-yl)-1H-pyrazol-4-yl)pyrazine-2-carboxylate]				
21.78	14.94	0.24	Nc1ncc(-c2cnn(C3CCN(CC4CCN(C(=O)CNc5cccc6c5C(=O)N(C5CCC(=O)NC5=O)C6=O)CC4)CC3)c2)nc1C(=O)N[C@@H](C(=O)Nc1ccc(F)cc1)c1ccccc1 (stereo partly drawn) [TDH-206, 3-amino-6-(1-(1-((1-((2-(2,6-dioxopiperidin-3-yl)-1,3-dioxoisoindolin-4-yl)glycyl)piperidin-4-yl)methyl)piperidin-4-yl)-1H-pyrazol-4-yl)-N-((R)-2-((4-fluorophenyl)amino)-2-oxo-1-phenylethyl)pyrazine-2-carboxamide]				
		0.046	Nc1ncc(-c2cnn(C3CCN(CCOCCOCCNC(=O)CNc4ccc5c(c4)C(=O)N(C4CCC(=O)NC4=O)C5=O)CC3)c2)nc1C(=O)N[C@@H](C(=O)Nc1ccc(F)cc1)c1ccccc1 (stereo partly drawn) [TDH-218, 3-amino-6-(1-(1-(2-(2-(2-(2-((2-(2,6-dioxopiperidin-3-yl)-1,3-dioxoisoindolin-5-yl)amino)acetamido)ethoxy)ethoxy)ethyl)piperidin-4-yl)-1H-pyrazol-4-yl)-N-((R)-2-((4-fluorophenyl)amino)-2-oxo-1-phenylethyl)pyrazine-2-carboxamide]	27.92	40.68		
		0.027	Nc1ncc(-c2cn(C3CCN(CC4CCN(C(=O)C5CCN(c6ccc7c(c6)C(=O)N(C6CCC(=O)NC6=O)C7=O)CC5)CC4)CC3)nn2)nc1C(=O)OC(C(=O)Nc1ccc(F)cc1)c1ccccc1 (stereo not shown) [TDH-221, 2-((4-fluorophenyl)amino)-2-oxo-1-phenylethyl 3-amino-6-(1-(1-((1-(1-(2-(2,6-dioxopiperidin-3-yl)-1,3-dioxoisoindolin-5-yl)piperidine-4-carbonyl)piperidin-4-yl)methyl)piperidin-4-yl)-1H-1,2,3-triazol-4-yl)pyrazine-2-carboxylate]	53.65	54.23		
		0.14	Nc1ncc(-c2ccc(N3CCN(CC4CCN(C(=O)C5CCN(c6cccc7c6C(=O)N(C6CCC(=O)NC6=O)C7=O)CC5)CC4)CC3)nc2)nc1C(=O)OC(C(=O)Nc1ccc(F)cc1)c1ccccc1 (stereo not shown) [TDH-230, 2-((4-fluorophenyl)amino)-2-oxo-1-phenylethyl 3-amino-6-(6-(4-((1-(1-(2-(2,6-dioxopiperidin-3-yl)-1,3-dioxoisoindolin-4-yl)piperidine-4-carbonyl)piperidin-4-yl)methyl)piperazin-1-yl)pyridin-3-yl)pyrazine-2-carboxylate]	7.4	10.64		
		0.14	Nc1ncc(-c2ccc(N3CCN(CC4CCN(C(=O)C5CCN(c6ccc7c(c6)C(=O)N(C6CCC(=O)NC6=O)C7=O)CC5)CC4)CC3)nc2)nc1C(=O)OC(C(=O)Nc1ccc(F)cc1)c1ccccc1 (stereo not shown) [TDH-231, 2-((4-fluorophenyl)amino)-2-oxo-1-phenylethyl 3-amino-6-(6-(4-((1-(1-(2-(2,6-dioxopiperidin-3-yl)-1,3-dioxoisoindolin-5-yl)piperidine-4-carbonyl)piperidin-4-yl)methyl)piperazin-1-yl)pyridin-3-yl)pyrazine-2-carboxylate]	15.47	11.4		
		0.26	Nc1ncc(-c2ccc(N3CCN(CC4CCN(C(=O)CNc5cccc6c5C(=O)N(C5CCC(=O)NC5=O)C6=O)CC4)CC3)nc2)nc1C(=O)OC(C(=O)Nc1ccc(F)cc1)c1ccccc1 (stereo not shown) [TDH-232, 2-((4-fluorophenyl)amino)-2-oxo-1-phenylethyl 3-amino-6-(6-(4-((1-((2-(2,6-dioxopiperidin-3-yl)-1,3-dioxoisoindolin-4-yl)glycyl)piperidin-4-yl)methyl)piperazin-1-yl)pyridin-3-yl)pyrazine-2-carboxylate]	3.46			
18.61	30.36	0.05	Nc1ncc(-c2ccc(N3CCN(CCOCCOCCNC(=O)CNc4cccc5c4C(=O)N(C4CCC(=O)NC4=O)C5=O)CC3)nc2)nc1C(=O)OC(C(=O)Nc1ccc(F)cc1)c1ccccc1 (stereo not shown) [TDH-259, 2-((4-fluorophenyl)amino)-2-oxo-1-phenylethyl 3-amino-6-(6-(4-(2-(2-(2-(2-((2-(2,6-dioxopiperidin-3-yl)-1,3-dioxoisoindolin-4-yl)amino)acetamido)ethoxy)ethoxy)ethyl)piperazin-1-yl)pyridin-3-yl)pyrazine-2-carboxylate]				
61.54	39.01	0.0098	Nc1ncc(-c2cnn(C3CCN(C(=O)CCCCCC#Cc4cccc5c4CN(C4CCC(=O)NC4=O)C5=O)CC3)c2)nc1C(=O)O[C@@H](C(=O)Nc1ccc(F)cc1)c1ccccc1 (stereo partly drawn) [TDH-423, (R)-2-((4-fluorophenyl)amino)-2-oxo-1-phenylethyl 3-amino-6-(1-(1-(8-(2-(2,6-dioxopiperidin-3-yl)-1-oxoisoindolin-4-yl)oct-7-ynoyl)piperidin-4-yl)-1H-pyrazol-4-yl)pyrazine-2-carboxylate]				
		0.091	Nc1ncc(-c2cnn(C3CCN(CCCN4CCN(C(=O)CNc5ccc6c(c5)C(=O)N(C5CCC(=O)NC5=O)C6=O)CC4)CC3)c2)nc1C(=O)N[C@@H](C(=O)Nc1ccc(F)cc1)c1ccccc1 (stereo partly drawn) [TDH-493, 3-amino-6-(1-(1-(3-(4-((2-(2,6-dioxopiperidin-3-yl)-1,3-dioxoisoindolin-5-yl)glycyl)piperazin-1-yl)propyl)piperidin-4-yl)-1H-pyrazol-4-yl)-N-((R)-2-((4-fluorophenyl)amino)-2-oxo-1-phenylethyl)pyrazine-2-carboxamide]			1.49	−3.98
